Source: ChEMBL document CHEMBL1165944, “Synthesis and biological evaluation of a new series of berberine derivatives as dual inhibitors of acetylcholinesterase and butyrylcholinesterase” (Bioorg Med Chem, 2010)

Columns and labels:
Acetylcholinesterase = Acetylcholinesterase (Electrophorus electricus, UniProt O42275); assay: Inhibition of electric eel AChE by Ellman's assay
Cholinesterase = Cholinesterase (Equus caballus, UniProt P81908); assay: Inhibition of equine serum BuChE by Ellman's method
Chain of Cholinesterase (P81908 whole entry): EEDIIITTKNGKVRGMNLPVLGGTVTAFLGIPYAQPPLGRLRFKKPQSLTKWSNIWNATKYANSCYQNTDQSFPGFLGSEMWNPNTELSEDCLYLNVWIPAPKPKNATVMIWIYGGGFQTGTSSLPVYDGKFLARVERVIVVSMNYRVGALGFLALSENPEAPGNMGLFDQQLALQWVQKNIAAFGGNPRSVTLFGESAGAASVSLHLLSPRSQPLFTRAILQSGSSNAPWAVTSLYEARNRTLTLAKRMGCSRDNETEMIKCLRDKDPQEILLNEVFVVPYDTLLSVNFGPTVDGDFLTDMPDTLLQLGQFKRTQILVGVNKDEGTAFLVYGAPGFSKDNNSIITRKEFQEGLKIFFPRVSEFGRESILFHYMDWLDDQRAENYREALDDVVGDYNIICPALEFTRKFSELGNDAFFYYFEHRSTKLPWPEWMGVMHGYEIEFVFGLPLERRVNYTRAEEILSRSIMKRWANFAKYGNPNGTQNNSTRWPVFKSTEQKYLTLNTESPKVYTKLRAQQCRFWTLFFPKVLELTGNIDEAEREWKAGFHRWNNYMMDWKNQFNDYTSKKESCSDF

Chain of Acetylcholinesterase (O42275 whole entry): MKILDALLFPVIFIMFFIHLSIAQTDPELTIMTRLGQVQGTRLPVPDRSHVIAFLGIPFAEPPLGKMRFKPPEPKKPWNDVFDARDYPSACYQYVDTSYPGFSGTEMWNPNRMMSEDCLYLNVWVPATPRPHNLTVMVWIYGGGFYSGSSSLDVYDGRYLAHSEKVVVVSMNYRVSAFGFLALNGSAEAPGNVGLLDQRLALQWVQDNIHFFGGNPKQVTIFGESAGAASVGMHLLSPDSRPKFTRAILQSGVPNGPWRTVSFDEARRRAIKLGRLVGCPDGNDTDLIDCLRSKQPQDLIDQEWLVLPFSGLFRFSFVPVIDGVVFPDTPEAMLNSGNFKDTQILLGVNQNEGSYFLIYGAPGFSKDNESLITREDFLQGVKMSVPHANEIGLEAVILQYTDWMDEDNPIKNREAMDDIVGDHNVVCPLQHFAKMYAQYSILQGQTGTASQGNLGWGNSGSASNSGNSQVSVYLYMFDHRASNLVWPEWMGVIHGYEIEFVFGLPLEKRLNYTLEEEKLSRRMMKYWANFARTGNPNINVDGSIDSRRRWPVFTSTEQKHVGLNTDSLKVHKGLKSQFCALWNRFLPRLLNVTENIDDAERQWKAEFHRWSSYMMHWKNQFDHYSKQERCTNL

Structure (SMILES) | IC50 (Acetylcholinesterase) [nM] | IC50 (Cholinesterase) [nM]
COc1ccc2cc3[n+](cc2c1OCCCOc1c(OC)ccc2cc4[n+](cc12)CCc1cc2c(cc1-4)OCO2)CCc1cc2c(cc1-3)OCO2 | 226 | –
COc1ccc2cc3[n+](cc2c1OCCOc1c(OC)ccc2cc4[n+](cc12)CCc1cc2c(cc1-4)OCO2)CCc1cc2c(cc1-3)OCO2 | 320 | –
COc1ccc2cc3[n+](cc2c1OCCCCOc1ccc(Cl)cc1)CCc1cc2c(cc1-3)OCO2 | 1500 | –
COc1ccc2cc3[n+](cc2c1OCCCOc1ccc(Br)cc1)CCc1cc2c(cc1-3)OCO2 | 265 | –
COc1ccc2cc3[n+](cc2c1OCCCCOc1ccccn1)CCc1cc2c(cc1-3)OCO2 | 340 | –
COc1ccc2cc3[n+](cc2c1OCCCN(C)c1ccccc1)CCc1cc2c(cc1-3)OCO2 | 156 | –
COc1ccc2cc3[n+](cc2c1OCCCOc1ccc2ccccc2c1)CCc1cc2c(cc1-3)OCO2 | 359 | –
COc1ccc2cc3[n+](cc2c1OCCCSc1ccc2ccccc2c1)CCc1cc2c(cc1-3)OCO2 | 500 | –
COc1ccc2cc3[n+](cc2c1OCCCCOc1ccc(Br)cc1)CCc1cc2c(cc1-3)OCO2 | 743 | –
COc1ccc2cc3[n+](cc2c1OCCCCSc1ccc2ccccc2c1)CCc1cc2c(cc1-3)OCO2 | 1350 | –
COc1ccc2cc3[n+](cc2c1OCCCOc1ccc([N+](=O)[O-])cc1)CCc1cc2c(cc1-3)OCO2 | 400 | –
COc1ccc2cc3[n+](cc2c1OCCC(=O)Nc1ccccc1)CCc1cc2c(cc1-3)OCO2 | 535 | –
COc1ccc2cc3[n+](cc2c1OCCC(=O)Nc1ccc(C)cc1)CCc1cc2c(cc1-3)OCO2 | 1460 | –
COc1ccc2cc3[n+](cc2c1OCCC(=O)Nc1ccc([N+](=O)[O-])cc1)CCc1cc2c(cc1-3)OCO2 | 6500 | 5530
COc1ccc2cc3[n+](cc2c1OCCCOc1ccc(Cl)cc1)CCc1cc2c(cc1-3)OCO2 | 715 | –
COc1ccc2cc3[n+](cc2c1OCCCNc1ccccc1)CCc1cc2c(cc1-3)OCO2 | 138 | –
COc1ccc2cc3[n+](cc2c1OCC[n+]1ccccc1)CCc1cc2c(cc1-3)OCO2 | 196 | –
COc1ccc2cc3[n+](cc2c1OCCC[n+]1ccccc1)CCc1cc2c(cc1-3)OCO2 | 359 | –
COc1ccc2cc3[n+](cc2c1OCCCCOc1ccc2ccccc2c1)CCc1cc2c(cc1-3)OCO2 | 1900 | –
COc1ccc2cc3[n+](cc2c1OCCC(=O)Nc1ccc(Cl)cc1)CCc1cc2c(cc1-3)OCO2 | 3860 | –
COc1ccc2cc3[n+](cc2c1OCC[n+]1cccc(C)c1)CCc1cc2c(cc1-3)OCO2 | 48 | –
COc1ccc2cc3[n+](cc2c1OCCC[n+]1cccc(C)c1)CCc1cc2c(cc1-3)OCO2 | 152 | –
COc1ccc(NC(=O)CCOc2c(OC)ccc3cc4[n+](cc23)CCc2cc3c(cc2-4)OCO3)cc1 | 2800 | –
COc1ccc2cc3[n+](cc2c1OCCCOc1ccc(C)cc1)CCc1cc2c(cc1-3)OCO2 | 878 | –
COc1ccc(OCCCOc2c(OC)ccc3cc4[n+](cc23)CCc2cc3c(cc2-4)OCO3)cc1 | 1000 | –
COc1ccc2cc3[n+](cc2c1OCCCCOc1c(OC)ccc2cc4[n+](cc12)CCc1cc2c(cc1-4)OCO2)CCc1cc2c(cc1-3)OCO2 | 176 | –
COc1ccc(OCCCCOc2c(OC)ccc3cc4[n+](cc23)CCc2cc3c(cc2-4)OCO3)cc1 | 748 | –
COc1ccc2cc3[n+](cc2c1OCCCCOc1ccc([N+](=O)[O-])cc1)CCc1cc2c(cc1-3)OCO2 | 490 | –
